From ChEMBL document CHEMBL1201862, “PubChem BioAssay data set” (2004)
Values joined by “and” are separate entries in the source; they are usually repeats but may differ in a detail not shown here. Equal entries are not always repeated.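 Cells were grown in 96-well plates and exposed to each compound for 48 hours at five concentrations; endpoints were interpolated linearly between bracketing concentrations, or set to the highest concentration if not reached. The concentration for 50% growth inhibition is given as GI50.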 Active and inactive are the calls of the source. Cut-off read from the data, not from the text of the source: active = GI50 up to about 1.1 µM and inactive = higher.

What was measured:
Assay in all cases: NCI anticancer screen, dose series, 48 h
786-0 = test system: 786-0
ACHN = test system: ACHN
HOP-92 = test system: HOP-92
HT-29 = test system: HT-29
KM-20L2 = test system: KM-20L2
LXFL 529 = test system: LXFL 529
M14 = test system: M14
MOLT-4 = test system: MOLT-4
NCI-H23 = test system: NCI-H23
NCI-H460 = test system: NCI-H460
OVCAR-8 = test system: OVCAR-8
SK-MEL-28 = test system: SK-MEL-28
SN12C = test system: SN12C
U-251 = test system: U-251
XF498 = test system: XF498
DMS-273 = test system: DMS-273
MCF7 = test system: MCF7
NCI/ADR-RES = test system: NCI/ADR-RES

CC(=O)NNc1nc(C)c(C(=O)NNC(=O)C(=O)Nc2ccc(Cl)cc2)s1
GI50 (786-0): > 100 µM (inactive)
GI50 (ACHN): 54.6 µM (inactive)
GI50 (HOP-92): 39.5 µM (inactive)
GI50 (HT-29): > 100 µM (inactive)
GI50 (KM-20L2): > 100 µM (inactive)
GI50 (LXFL 529): 34.7 µM (inactive)
GI50 (M14): > 100 µM (inactive)
GI50 (MOLT-4): 37.4 µM (inactive)
GI50 (NCI-H23): > 100 µM (inactive)
GI50 (NCI-H460): > 100 µM (inactive)
GI50 (OVCAR-8): > 100 µM (inactive)
GI50 (SK-MEL-28): > 100 µM (inactive)
GI50 (SN12C): > 100 µM (inactive)
GI50 (U-251): > 100 µM (inactive)
GI50 (XF498): > 100 µM (inactive)

COc1cccc(-c2nccc3c(OCc4ccccc4)c(OC)c(OC)cc23)c1
GI50 (786-0): > 10 µM (inactive)
GI50 (ACHN): 54.6 µM (inactive)
GI50 (DMS-273): 27.2 µM (inactive)
GI50 (HOP-92): > 100 µM (inactive)
GI50 (HT-29): 12 µM (inactive)
GI50 (KM-20L2): > 100 µM (inactive)
GI50 (LXFL 529): 5.74 µM (inactive)
GI50 (M14): > 100 µM (inactive)
GI50 (MOLT-4): 5.53 µM (inactive)
GI50 (NCI-H23): 4.09 µM (inactive)
GI50 (OVCAR-8): > 100 µM (inactive)
GI50 (SN12C): 7.67 µM (inactive)
GI50 (U-251): 6.46 µM (inactive)
GI50 (XF498): > 100 µM (inactive)

O=C(/C=C/c1ccccc1O)c1cccs1
GI50 (786-0): > 100 µM (inactive)
GI50 (ACHN): > 100 µM (inactive)
GI50 (DMS-273): > 100 µM (inactive)
GI50 (HT-29): > 100 µM (inactive)
GI50 (KM-20L2): > 100 µM (inactive)
GI50 (LXFL 529): > 100 µM (inactive)
GI50 (M14): > 100 µM (inactive)
GI50 (MOLT-4): > 100 µM (inactive)
GI50 (NCI-H23): > 100 µM (inactive)
GI50 (NCI-H460): > 100 µM (inactive)
GI50 (OVCAR-8): > 100 µM (inactive)
GI50 (SK-MEL-28): > 100 µM (inactive)
GI50 (SN12C): > 100 µM (inactive)
GI50 (U-251): > 100 µM (inactive)
GI50 (XF498): > 100 µM (inactive)

Cc1nc(N)nn1C1OCC(O)C(O)C1O (centres undefined)
GI50 (786-0): > 100 µM (inactive)
GI50 (ACHN): > 100 µM (inactive)
GI50 (DMS-273): > 100 µM (inactive)
GI50 (HT-29): > 100 µM (inactive)
GI50 (KM-20L2): > 100 µM (inactive)
GI50 (LXFL 529): > 100 µM (inactive)
GI50 (M14): > 100 µM (inactive)
GI50 (MOLT-4): > 100 µM (inactive)
GI50 (NCI-H23): > 100 µM (inactive)
GI50 (NCI-H460): > 100 µM (inactive)
GI50 (OVCAR-8): > 100 µM (inactive)
GI50 (SK-MEL-28): > 100 µM (inactive)
GI50 (SN12C): > 100 µM (inactive)
GI50 (U-251): > 100 µM (inactive)
GI50 (XF498): > 100 µM (inactive)

CCCCCCCC/C=C\CCCCCCCC(=O)O [OLEIC ACID]
GI50 (DMS-273): 110 µM (inactive)
GI50 (HOP-92): > 5 µM (inactive)
GI50 (HT-29): > 500 µM (inactive)
GI50 (KM-20L2): > 500 µM (inactive)
GI50 (MCF7): 104 µM (inactive)
GI50 (MOLT-4): 148 µM (inactive)
GI50 (NCI-H23): 87.7 µM (inactive)
GI50 (NCI-H460): 101 µM (inactive)
GI50 (NCI/ADR-RES): 102 µM (inactive)
GI50 (OVCAR-8): 99.1 µM (inactive)
GI50 (SK-MEL-28): 149 µM (inactive)
GI50 (SN12C): 51.6 µM (inactive)
GI50 (U-251): 149 µM (inactive)
GI50 (XF498): 8.91 µM (inactive)

O=C1c2ccccc2C(=O)N1CCn1nc(-c2ccccc2)cc(-c2ccccc2)c1=O
GI50 (786-0): > 100 µM (inactive)
GI50 (ACHN): 34.7 µM (inactive)
GI50 (DMS-273): 49.5 µM (inactive)
GI50 (HOP-92): 37.8 µM (inactive)
GI50 (HT-29): 52.6 µM (inactive)
GI50 (KM-20L2): > 100 µM (inactive)
GI50 (LXFL 529): 52.2 µM (inactive)
GI50 (M14): > 100 µM (inactive)
GI50 (MOLT-4): 26.4 µM (inactive)
GI50 (NCI-H23): 43.2 µM (inactive)
GI50 (NCI-H460): 26.2 µM (inactive)
GI50 (OVCAR-8): 33.3 µM (inactive)
GI50 (SK-MEL-28): > 100 µM (inactive)
GI50 (SN12C): 44.6 µM (inactive)
GI50 (U-251): 71.1 µM (inactive)

CN(C)CC(CC1=C(CC(CN(C)C)N(C)C)CCC1)N(C)C (centres undefined)
GI50 (DMS-273): > 100 µM (inactive)
GI50 (HOP-92): > 100 µM (inactive)
GI50 (HT-29): > 100 µM (inactive)
GI50 (KM-20L2): > 100 µM (inactive)
GI50 (MCF7): > 100 µM (inactive)
GI50 (MOLT-4): > 100 µM (inactive)
GI50 (NCI-H23): > 100 µM (inactive)
GI50 (NCI-H460): > 100 µM (inactive)
GI50 (NCI/ADR-RES): > 100 µM (inactive)
GI50 (OVCAR-8): > 100 µM (inactive)
GI50 (SK-MEL-28): > 100 µM (inactive)
GI50 (SN12C): > 100 µM (inactive)
GI50 (U-251): > 100 µM (inactive)
GI50 (XF498): > 100 µM (inactive)

COc1ccc(C2=CC3CCC2C3)cc1 (centres undefined)
GI50 (786-0): > 100 µM (inactive)
GI50 (ACHN): > 100 µM (inactive)
GI50 (DMS-273): > 100 µM (inactive)
GI50 (HOP-92): 59.8 µM (inactive)
GI50 (HT-29): > 100 µM (inactive)
GI50 (LXFL 529): 0.0535 µM (active)
GI50 (M14): > 100 µM (inactive)
GI50 (MOLT-4): > 100 µM (inactive)
GI50 (NCI-H23): > 100 µM (inactive)
GI50 (NCI-H460): > 100 µM (inactive)
GI50 (OVCAR-8): > 100 µM (inactive)
GI50 (SK-MEL-28): > 100 µM (inactive)
GI50 (SN12C): > 100 µM (inactive)
GI50 (U-251): > 100 µM (inactive)
GI50 (XF498): > 100 µM (inactive)

NC(=O)c1csc(CCCCCCc2nc(C(N)=O)cs2)n1
GI50 (786-0): > 45.3 µM (inactive)
GI50 (ACHN): > 100 µM (inactive)
GI50 (DMS-273): > 100 µM (inactive)
GI50 (HOP-92): > 100 µM (inactive)
GI50 (HT-29): > 40.9 µM (inactive)
GI50 (KM-20L2): > 100 µM (inactive)
GI50 (LXFL 529): > 100 µM (inactive)
GI50 (M14): > 100 µM (inactive)
GI50 (MOLT-4): > 100 µM (inactive)
GI50 (NCI-H23): > 100 µM (inactive)
GI50 (NCI-H460): > 100 µM (inactive)
GI50 (OVCAR-8): > 100 µM (inactive)
GI50 (SK-MEL-28): > 100 µM (inactive)
GI50 (SN12C): > 100 µM (inactive)
GI50 (U-251): > 42.5 µM (inactive)

CC(=O)c1ccc2c(c1)c1c(C)c3c[n+](C)ccc3c(C)c1n2C
GI50 (DMS-273): 2.39 µM (inactive)
GI50 (HOP-92): 11.8 µM (inactive)
GI50 (HT-29): 13.2 µM (inactive)
GI50 (KM-20L2): 17.1 µM (inactive)
GI50 (MCF7): 3.1 µM (inactive)
GI50 (MOLT-4): 0.641 µM (active)
GI50 (NCI-H460): 2.76 µM (inactive)
GI50 (NCI/ADR-RES): 8.55 µM (inactive)
GI50 (OVCAR-8): 1.45 µM (inactive)
GI50 (SK-MEL-28): 7.87 µM (inactive)
GI50 (SN12C): 0.499 µM (active)
GI50 (U-251): 0.706 µM (active)
GI50 (XF498): 2.53 µM (inactive)

CCCCCCCCCCSCC(CO)NC(=O)/C=C/c1c(C)[nH]c(=O)[nH]c1=O (centres undefined)
GI50 (HOP-92): 1.54 µM (inactive) and 820 nM (active)
GI50 (HT-29): 4.02 µM (inactive) and 7.43 µM (inactive)
GI50 (KM-20L2): 6.46 µM (inactive) and 3.37 µM (inactive)
GI50 (MCF7): 753 nM (active) and 1.17 µM (inactive)
GI50 (MOLT-4): 1.22 µM (inactive) and 1.44 µM (inactive)
GI50 (NCI-H460): 1.51 µM (inactive) and 1.76 µM (inactive)
GI50 (NCI/ADR-RES): > 50 µM (inactive) and > 42.8 µM (inactive)
GI50 (OVCAR-8): 1.04 µM (active) and 1.09 µM (active)
GI50 (SK-MEL-28): 1.77 µM (inactive) and 1.85 µM (inactive)
GI50 (SN12C): 1.37 µM (inactive) and 1.09 µM (active)
GI50 (U-251): 532 nM (active) and 355 nM (active)
GI50 (XF498): 519 nM (active) and 687 nM (active)

C/C(=C\c1ccccc1)C(O)C(=O)c1nc2ccc(Cl)cc2nc1O (centres undefined)
GI50 (786-0): > 100 µM (inactive)
GI50 (ACHN): > 100 µM (inactive)
GI50 (DMS-273): > 100 µM (inactive)
GI50 (HT-29): > 100 µM (inactive)
GI50 (KM-20L2): > 100 µM (inactive)
GI50 (LXFL 529): 84.5 µM (inactive)
GI50 (M14): > 100 µM (inactive)
GI50 (MOLT-4): 48.3 µM (inactive)
GI50 (NCI-H23): > 100 µM (inactive)
GI50 (NCI-H460): > 100 µM (inactive)
GI50 (OVCAR-8): > 100 µM (inactive)
GI50 (SK-MEL-28): > 100 µM (inactive)
GI50 (SN12C): > 100 µM (inactive)
GI50 (U-251): > 100 µM (inactive)
GI50 (XF498): 92 µM (inactive)

CCCn1cc2c(SC)nc(SC)nc2n1
GI50 (ACHN): > 100 µM (inactive)
GI50 (DMS-273): > 100 µM (inactive)
GI50 (HOP-92): > 100 µM (inactive)
GI50 (HT-29): > 100 µM (inactive)
GI50 (M14): > 100 µM (inactive)
GI50 (MOLT-4): > 100 µM (inactive)
GI50 (NCI-H23): > 100 µM (inactive)
GI50 (NCI-H460): > 100 µM (inactive)
GI50 (OVCAR-8): > 100 µM (inactive)
GI50 (SK-MEL-28): > 100 µM (inactive)
GI50 (SN12C): > 100 µM (inactive)
GI50 (U-251): > 100 µM (inactive)
GI50 (XF498): > 100 µM (inactive)

O=C(c1ccccc1)c1c(CC(O)c2cccnc2)n(C(=O)c2ccccc2)c2ccccc12 (centres undefined)
GI50 (786-0): 33.2 µM (inactive)
GI50 (ACHN): 22.9 µM (inactive)
GI50 (DMS-273): 28.2 µM (inactive)
GI50 (HOP-92): 15 µM (inactive)
GI50 (HT-29): 18.8 µM (inactive)
GI50 (KM-20L2): 21.3 µM (inactive)
GI50 (M14): 19.1 µM (inactive)
GI50 (MOLT-4): 17.9 µM (inactive)
GI50 (NCI-H23): 16.5 µM (inactive)
GI50 (NCI-H460): 16.9 µM (inactive)
GI50 (OVCAR-8): 25.3 µM (inactive)
GI50 (SK-MEL-28): 17.7 µM (inactive)
GI50 (U-251): 17 µM (inactive)
GI50 (XF498): 13.6 µM (inactive)
